Results: patent publication US20020160008A1, “TREATMENT OF DIABETES” (priority 1994, published 2002)
Entries after “also recorded” stand apart in the source; their conditions may differ.

Key:
[1] = Sustacal meal with intravenous GLIP infusion 1.2 pm/kg/min in remission phase Type I diabetes (Example 1); type: in vivo, human; details: IV GLIP 1.2 pm/kg/min for 120 min after Sustacal meal
Experimental: 7 subjects with remission phase Type I diabetes were studied after ingestion of a standardised meal of Sustacal (Upjohn) (delivering […]). Subjects continued their normal insulin treatment programme on the day prior to the test and, on the day of the test, omitted their morning insulin injection and arrived fasting at 8:00 am. […] Infusion was continued for 120 minutes. Blood levels of glucose, C-peptide, gastrin, glucagon and HPP were monitored by standard radioimmunoassay methods in samples taken before and at intervals during the study, up to 180 minutes. On another test day, subjects were given the Sustacal meal alone and the same analytes were similarly monitored.

[2] = Intravenous glucose infusion with intravenous GLIP in remission phase Type I diabetes (Example 2); type: in vivo, human; details: IV GLIP 1.2 pm/kg/min for 60 min with IV glucose 20 g over 60 min, FIG. 2
Experimental: Four subjects with remission phase Type I diabetes were studied during intravenous glucose infusion. Subjects prepared for the tests as described in Example 1, but received an intravenous infusion of glucose (20 g over 60 min. constant rate)instead of the Sustacal meal. […] Blood levels of glucose and C-peptide were monitored as in Example 1.

[3] = Sustacal meal with GLIP infusion 0.75 pm/kg/min in remission phase Type I diabetes (Example 3); type: in vivo, human; details: GLIP 0.75 pmol/kg/min for 120 min with Sustacal meal, versus saline infusion; FIG. 3
Experimental: The test was conducted as described in Example 1 and blood glucose and C-peptide levels were measured. On a further test day, the subjects were studied during saline infusion after a similar Sustacal meal.

[4] = Sustacal meal preceded by subcutaneous GLIP injection in normal volunteers (Example 4); type: in vivo, human; details: for delay in increase in blood levels of glucose, HPP, C-peptide and insulin: compared with the first dose
Experimental: 7 normal volunteers were studied after ingestion of a Sustacal meal either alone or immediately preceded by a subcutaneous injection of 1.00 μg GLIP.

[5] = Sustacal meal preceded by subcutaneous GLIP injection in Type I diabetic subjects (Example 5); type: in vivo, human; details: Type I diabetics, 100 μg GLIP subcutaneously before Sustacal meal
Source text: 7 Type I diabetic subjects were studied.

[6] = 50 μg GLIP plus 5 units insulin (half the usual dose) subcutaneously before Sustacal meal; one subject; FIG. 6 Panel A
Source text: One Type 1 diabetic subject was given GLIP along with insulin and the effects on post-prandial glycaemia observed. […] Blood levels of GLIP were monitored by a standard radioimmunoassay method.

Glucagon-like peptide 1(7-36)amide [GLIP]
blood levels of C-peptide [1]: prevented a significant increase in blood levels of C-peptide | plasma glucagon levels stimulated by the meal [1]: prevented the mean rise in plasma glucagon levels | control of blood glucose level after a meal ([1]; FIG. 1 Panel A): excellent control of blood glucose level | pancreatic polypeptide (PP) response to meal ([1]; FIG. 1 Panel C): this response was absent during GLIP infusion | gastrin response / gastrin levels ([1]; FIG. 1 Panel E): normal gastrin response; also recorded: not significantly affected | control of blood glucose level [2]: improved control of blood glucose level | secretion of endogenous insulin [2]: stimulated secretion of endogenous insulin | C-peptide after meal [3]: rise in C-peptide was similar to the control experiment | blood glucose after meal [3]: increase in glucose was less than in the control experiment | delay in increase in blood levels of glucose, HPP, C-peptide and insulin ([4]; 50 μg GLIP): proportionally shorter | delay in increase in blood levels of glucose, HPP, C-peptide and insulin ([4]; 200 μg GLIP): longer delays | increase in blood levels of glucose, HPP, C-peptide and insulin ([4]; subcutaneous GLIP (1.00 μg as printed elsewhere in the source) before Sustacal meal, FIG. 4): A delay in increase | blood glucose levels compared to control ([5]; no morning insulin, FIG. 5 Panel A): lowering of blood glucose levels | pancreatic polypeptide (HPP) levels ([5]; FIG. 5 Panel D): delayed rise in pancreatic polypeptide (HPP) levels | insulin secretion (C-peptide, insulin) ([5]; FIG. 5 Panels B and C): no enhancement of insulin secretion over control levels | blood glucose after standard meal (maximum) [6]: ≤ 8 mM
